Test results as given in patent US9062043B2, “Fused tricyclic compounds as serine-threonine protein kinase and PARP modulators” (SENHWA BIOSCIENCES, INC., priority 2006, dated 2015).

Legend:
[1] = Tumor pharmacokinetic study, 30 mg/kg IV QDx6; format: in vivo, mice
[2] = target: protein kinases (Homo sapiens, UniProt O00418); assay: Kinase inhibition, percentage of activity at 0.5 μM, standardized radiometric kinase assays; format: biochemical; conditions: eEF-2K(h);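 further: each kinase tested separately, with activity read as 33P-labelled substrate protein captured on filters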
[3] = target: protein kinases (Homo sapiens, UniProt O14965); assay: as above; format: biochemical; conditions: Aurora-A(h)
[4] = target: protein kinases (Homo sapiens, UniProt P06241); assay: as above; format: biochemical; conditions: Fyn(h)
protein kinases (Homo sapiens, UniProt P06241), sequence (P06241 2-537 limits assumed): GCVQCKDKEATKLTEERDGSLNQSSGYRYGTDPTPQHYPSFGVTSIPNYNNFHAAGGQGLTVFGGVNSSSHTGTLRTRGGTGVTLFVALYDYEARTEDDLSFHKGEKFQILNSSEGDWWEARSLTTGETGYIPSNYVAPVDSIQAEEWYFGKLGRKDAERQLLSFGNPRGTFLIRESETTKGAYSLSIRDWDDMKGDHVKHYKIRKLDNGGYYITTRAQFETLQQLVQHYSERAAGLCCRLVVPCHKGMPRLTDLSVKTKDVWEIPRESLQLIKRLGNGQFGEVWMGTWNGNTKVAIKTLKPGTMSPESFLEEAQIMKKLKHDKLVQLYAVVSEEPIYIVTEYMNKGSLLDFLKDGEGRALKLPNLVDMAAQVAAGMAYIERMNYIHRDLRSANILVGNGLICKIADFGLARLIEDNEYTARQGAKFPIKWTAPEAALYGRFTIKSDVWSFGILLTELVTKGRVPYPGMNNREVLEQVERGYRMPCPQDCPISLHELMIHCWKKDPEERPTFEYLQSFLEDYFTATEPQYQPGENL

[5] = target: protein kinases (Homo sapiens, UniProt P07333); assay: as above; format: biochemical; conditions: Fms(h)
protein kinases (Homo sapiens, UniProt P07333), sequence (P07333 20-972 limits assumed): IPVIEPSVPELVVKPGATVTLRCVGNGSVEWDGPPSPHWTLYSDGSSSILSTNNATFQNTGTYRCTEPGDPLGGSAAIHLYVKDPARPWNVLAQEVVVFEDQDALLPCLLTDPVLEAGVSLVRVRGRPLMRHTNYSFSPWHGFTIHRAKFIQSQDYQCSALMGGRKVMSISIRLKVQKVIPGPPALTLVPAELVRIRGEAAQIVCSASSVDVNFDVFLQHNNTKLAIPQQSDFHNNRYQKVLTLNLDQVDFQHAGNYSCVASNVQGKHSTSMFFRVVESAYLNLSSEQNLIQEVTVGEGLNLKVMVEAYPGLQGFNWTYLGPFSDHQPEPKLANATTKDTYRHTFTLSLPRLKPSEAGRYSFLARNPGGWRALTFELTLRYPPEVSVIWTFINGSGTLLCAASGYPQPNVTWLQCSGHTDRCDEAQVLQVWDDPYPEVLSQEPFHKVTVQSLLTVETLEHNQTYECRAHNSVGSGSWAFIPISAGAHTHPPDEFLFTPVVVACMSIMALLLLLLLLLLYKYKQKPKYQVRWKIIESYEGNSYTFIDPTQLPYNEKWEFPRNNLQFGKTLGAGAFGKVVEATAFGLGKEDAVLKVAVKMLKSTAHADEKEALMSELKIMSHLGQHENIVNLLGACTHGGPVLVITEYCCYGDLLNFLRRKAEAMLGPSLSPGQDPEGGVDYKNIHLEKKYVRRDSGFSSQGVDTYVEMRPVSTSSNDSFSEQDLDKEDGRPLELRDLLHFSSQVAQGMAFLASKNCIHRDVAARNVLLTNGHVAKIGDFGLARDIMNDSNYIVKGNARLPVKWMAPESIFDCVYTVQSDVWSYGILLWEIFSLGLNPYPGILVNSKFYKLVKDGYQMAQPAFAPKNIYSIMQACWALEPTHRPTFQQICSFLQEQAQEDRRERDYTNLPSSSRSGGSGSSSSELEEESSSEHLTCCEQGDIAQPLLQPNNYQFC

[6] = target: protein kinases (Homo sapiens, UniProt P07947); assay: as above; format: biochemical; conditions: Yes(h)
protein kinases (Homo sapiens, UniProt P07947), sequence (P07947 2-543 limits assumed): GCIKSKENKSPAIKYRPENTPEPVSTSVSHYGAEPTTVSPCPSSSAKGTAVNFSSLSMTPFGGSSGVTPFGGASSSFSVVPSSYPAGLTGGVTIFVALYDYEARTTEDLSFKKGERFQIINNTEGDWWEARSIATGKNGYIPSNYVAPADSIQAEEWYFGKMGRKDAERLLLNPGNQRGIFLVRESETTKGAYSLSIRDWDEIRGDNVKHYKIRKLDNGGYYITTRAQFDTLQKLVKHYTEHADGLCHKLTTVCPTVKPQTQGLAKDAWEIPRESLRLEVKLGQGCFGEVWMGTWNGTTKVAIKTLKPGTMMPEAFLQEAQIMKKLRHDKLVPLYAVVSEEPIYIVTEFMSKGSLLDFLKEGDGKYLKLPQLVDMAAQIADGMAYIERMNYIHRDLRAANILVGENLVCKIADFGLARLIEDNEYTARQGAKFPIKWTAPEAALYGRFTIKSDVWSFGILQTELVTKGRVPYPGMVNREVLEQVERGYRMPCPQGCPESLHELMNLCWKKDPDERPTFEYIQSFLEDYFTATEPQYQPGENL

[7] = target: protein kinases (Homo sapiens, UniProt P08631); assay: as above; format: biochemical; conditions: Hck(h)
protein kinases (Homo sapiens, UniProt P08631), sequence (P08631 2-526 limits assumed): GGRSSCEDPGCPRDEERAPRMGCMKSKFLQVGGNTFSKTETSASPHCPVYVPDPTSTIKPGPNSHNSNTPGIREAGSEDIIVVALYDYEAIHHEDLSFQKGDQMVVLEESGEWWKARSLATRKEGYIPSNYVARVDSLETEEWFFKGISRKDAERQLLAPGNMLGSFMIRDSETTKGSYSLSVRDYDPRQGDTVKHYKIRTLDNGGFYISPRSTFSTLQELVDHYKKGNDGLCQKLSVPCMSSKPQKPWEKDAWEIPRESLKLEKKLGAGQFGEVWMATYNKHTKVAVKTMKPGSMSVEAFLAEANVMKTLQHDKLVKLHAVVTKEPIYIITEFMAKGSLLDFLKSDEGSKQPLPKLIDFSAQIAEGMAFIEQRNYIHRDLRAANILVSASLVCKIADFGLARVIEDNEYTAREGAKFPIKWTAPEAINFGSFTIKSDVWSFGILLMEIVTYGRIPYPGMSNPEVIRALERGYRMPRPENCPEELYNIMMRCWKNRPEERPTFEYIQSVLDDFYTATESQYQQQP

[8] = target: protein kinases (Homo sapiens, UniProt P09619); assay: as above; format: biochemical; conditions: PDGFRβ(h)
[9] = target: protein kinases (Homo sapiens, UniProt P10721, D816H); assay: as above; format: biochemical; conditions: cKit(D816H)(h)
[10] = target: protein kinases (Homo sapiens, UniProt P10721, V560G); assay: as above; format: biochemical; conditions: cKit(V560G)(h)
[11] = target: protein kinases (Homo sapiens, UniProt P11309); assay: as above; format: biochemical; conditions: Pim-1(h)
[12] = target: protein kinases (Homo sapiens, UniProt P11362); assay: as above; format: biochemical; conditions: FGFR1(h)
protein kinases (Homo sapiens, UniProt P11362), sequence (P11362 22-822 limits assumed): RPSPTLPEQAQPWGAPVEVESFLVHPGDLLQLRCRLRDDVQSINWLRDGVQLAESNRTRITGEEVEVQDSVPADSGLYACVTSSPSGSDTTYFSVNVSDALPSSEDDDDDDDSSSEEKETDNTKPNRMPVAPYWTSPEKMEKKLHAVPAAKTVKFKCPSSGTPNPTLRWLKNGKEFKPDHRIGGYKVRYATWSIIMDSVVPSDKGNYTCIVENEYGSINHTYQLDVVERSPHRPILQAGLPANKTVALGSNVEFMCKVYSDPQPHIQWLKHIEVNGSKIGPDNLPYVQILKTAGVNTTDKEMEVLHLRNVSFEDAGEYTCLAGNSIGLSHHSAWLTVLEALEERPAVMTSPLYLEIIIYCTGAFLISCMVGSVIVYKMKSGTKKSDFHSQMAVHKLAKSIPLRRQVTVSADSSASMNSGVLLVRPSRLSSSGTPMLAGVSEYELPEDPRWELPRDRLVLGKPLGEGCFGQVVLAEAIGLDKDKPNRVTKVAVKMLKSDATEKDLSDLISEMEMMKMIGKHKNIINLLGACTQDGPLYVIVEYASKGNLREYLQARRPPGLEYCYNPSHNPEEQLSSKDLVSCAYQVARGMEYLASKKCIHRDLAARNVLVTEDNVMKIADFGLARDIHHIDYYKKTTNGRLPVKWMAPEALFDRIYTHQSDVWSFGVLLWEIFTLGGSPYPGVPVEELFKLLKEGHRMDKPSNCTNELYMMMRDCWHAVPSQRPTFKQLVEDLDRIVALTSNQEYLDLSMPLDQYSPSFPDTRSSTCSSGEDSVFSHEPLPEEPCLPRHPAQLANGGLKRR

[13] = target: protein kinases (Homo sapiens, UniProt P23443); assay: as above; format: biochemical; conditions: p70S6K(h)
[14] = target: protein kinases (Homo sapiens, UniProt P31749); assay: as above; format: biochemical; conditions: PKBα(h)
[15] = target: protein kinases (Homo sapiens, UniProt P36888, D835Y); assay: as above; format: biochemical; conditions: Flt3(D835Y)(h)
[16] = target: protein kinases (Homo sapiens, UniProt P50613); assay: as above; format: biochemical; conditions: CDK7/cyclinH/MAT1(h)
protein kinases (Homo sapiens, UniProt P50613), sequence (P50613 2-346 limits assumed): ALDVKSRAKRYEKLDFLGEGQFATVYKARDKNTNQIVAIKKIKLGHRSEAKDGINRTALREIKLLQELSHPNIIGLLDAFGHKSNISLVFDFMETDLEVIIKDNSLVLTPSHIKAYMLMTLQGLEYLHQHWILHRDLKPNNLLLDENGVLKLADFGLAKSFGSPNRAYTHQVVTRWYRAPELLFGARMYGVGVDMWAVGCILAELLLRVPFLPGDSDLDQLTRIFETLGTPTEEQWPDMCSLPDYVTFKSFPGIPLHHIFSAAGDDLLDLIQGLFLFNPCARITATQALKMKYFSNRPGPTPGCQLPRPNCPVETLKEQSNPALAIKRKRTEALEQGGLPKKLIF

[17] = target: protein kinases (Homo sapiens, UniProt P51813); assay: as above; format: biochemical; conditions: Bmx(h)
[18] = target: protein kinases (Homo sapiens, UniProt P80192); assay: as above; format: biochemical; conditions: MLK1(h)
[19] = target: protein kinases (Homo sapiens, UniProt Q04759); assay: as above; format: biochemical; conditions: PKC0(h)
[20] = target: protein kinases (Homo sapiens, UniProt Q06418); assay: as above; format: biochemical; conditions: Rse(h)
[21] = target: protein kinases (Homo sapiens, UniProt Q13177); assay: as above; format: biochemical; conditions: PAK2(h)
[22] = target: protein kinases (Homo sapiens, UniProt Q15303); assay: as above; format: biochemical; conditions: ErbB4(h)
protein kinases (Homo sapiens, UniProt Q15303), sequence (Q15303 26-1308 limits assumed): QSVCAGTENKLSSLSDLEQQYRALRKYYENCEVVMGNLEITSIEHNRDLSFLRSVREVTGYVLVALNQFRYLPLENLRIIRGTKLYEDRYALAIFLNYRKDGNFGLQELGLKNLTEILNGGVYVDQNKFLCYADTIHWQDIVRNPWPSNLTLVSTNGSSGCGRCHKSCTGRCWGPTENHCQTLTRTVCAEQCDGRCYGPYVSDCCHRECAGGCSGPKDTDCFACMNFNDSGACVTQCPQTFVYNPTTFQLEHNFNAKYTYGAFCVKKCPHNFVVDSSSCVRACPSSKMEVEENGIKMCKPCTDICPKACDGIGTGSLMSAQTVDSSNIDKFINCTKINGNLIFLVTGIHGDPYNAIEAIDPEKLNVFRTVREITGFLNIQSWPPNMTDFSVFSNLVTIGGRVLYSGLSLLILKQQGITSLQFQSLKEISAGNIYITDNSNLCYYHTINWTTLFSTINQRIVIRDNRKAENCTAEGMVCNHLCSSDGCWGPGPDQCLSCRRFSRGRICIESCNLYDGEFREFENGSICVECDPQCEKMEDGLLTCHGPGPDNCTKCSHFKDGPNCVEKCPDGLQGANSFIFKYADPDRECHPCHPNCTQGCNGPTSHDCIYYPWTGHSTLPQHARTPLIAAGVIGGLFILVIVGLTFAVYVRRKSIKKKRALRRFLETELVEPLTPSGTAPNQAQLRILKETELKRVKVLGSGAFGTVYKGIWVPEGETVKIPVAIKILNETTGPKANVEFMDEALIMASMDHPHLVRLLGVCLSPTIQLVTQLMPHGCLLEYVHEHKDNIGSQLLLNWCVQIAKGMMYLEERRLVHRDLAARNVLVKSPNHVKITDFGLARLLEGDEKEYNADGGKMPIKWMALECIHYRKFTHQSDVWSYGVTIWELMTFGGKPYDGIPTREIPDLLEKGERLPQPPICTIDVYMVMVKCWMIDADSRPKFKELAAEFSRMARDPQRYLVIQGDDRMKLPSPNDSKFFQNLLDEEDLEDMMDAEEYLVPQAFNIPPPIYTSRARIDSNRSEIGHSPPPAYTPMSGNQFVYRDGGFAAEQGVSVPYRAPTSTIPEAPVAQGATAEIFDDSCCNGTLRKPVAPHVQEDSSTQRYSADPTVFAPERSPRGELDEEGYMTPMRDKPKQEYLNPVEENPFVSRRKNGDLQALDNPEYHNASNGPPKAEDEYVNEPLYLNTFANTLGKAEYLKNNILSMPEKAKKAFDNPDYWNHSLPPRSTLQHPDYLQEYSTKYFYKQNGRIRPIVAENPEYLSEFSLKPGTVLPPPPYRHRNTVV

[23] = target: protein kinases (Homo sapiens, UniProt Q15418); assay: as above; format: biochemical; conditions: Rsk1(h)
[24] = target: protein kinases (Homo sapiens, UniProt Q16832); assay: as above; format: biochemical; conditions: DDR2(h)
[25] = target: protein kinases (Homo sapiens, UniProt Q92630); assay: as above; format: biochemical; conditions: DYRK2(h)
[26] = target: protein kinases (Homo sapiens, UniProt Q96SB4); assay: as above; format: biochemical; conditions: SRPK1(h)
[27] = target: protein kinases (Homo sapiens, UniProt Q9H422); assay: as above; format: biochemical; conditions: HIPK3(h)

C#Cc1cccc(Nc2nc3cc(C(=O)O)ccc3c3cncnc23)c1 [compound A2]
Half life change on repeated dosing [1]: about doubles
Minimum concentration increase after six days [1]: 4-5 times higher
Time to steady state [1]: about three days
activity at 0.5 µM [2]: 106%
activity at 0.5 µM [3]: 94%
activity at 0.5 µM [4]: 114%
activity at 0.5 µM [5]: 174%
activity at 0.5 µM [6]: 109%
activity at 0.5 µM [7]: 111%
activity at 0.5 µM [8]: 110%
activity at 0.5 µM [9]: 101%
activity at 0.5 µM [10]: 111%
activity at 0.5 µM [11]: 27%
activity at 0.5 µM [12]: 103%
activity at 0.5 µM [13]: 80%
activity at 0.5 µM [14]: 104%
activity at 0.5 µM [15]: 17%
activity at 0.5 µM [16]: 77%
activity at 0.5 µM [17]: 118%
activity at 0.5 µM [18]: 80%
activity at 0.5 µM [19]: 111%
activity at 0.5 µM [20]: 109%
activity at 0.5 µM [21]: 112%
activity at 0.5 µM [22]: 126%
activity at 0.5 µM [23]: 78%
activity at 0.5 µM [24]: 109%
activity at 0.5 µM [25]: 50%
activity at 0.5 µM [26]: 66%
activity at 0.5 µM [27]: 10%
